Reference: US9868698B2, “(2S,4R)-5-(5′-chloro-2′-fluorobiphenyl-4-yl)-4-(ethoxyoxalylamino)-2-hydroxymethyl-2-methylpentanoic acid” (THERAVANCE BIOPHARMA R&D IP, LLC, priority 2015, dated 2018)
One block for each molecule: values may come before it.

Tests used:
NEP = NEP (Homo sapiens, UniProt P08473); assay: In vitro enzyme inhibition assay, human NEP (Assay 1); format: biochemical; design: purchased R&D Systems 1182-ZN; settings: read-out: human pKi (converted)
Description: (§1) The inhibitory activities at human and rat neprilysin (EC 3.4.24.11; NEP) were determined using in vitro assays as described below.
Recombinant human NEP was obtained commercially (R&D Systems, Minneapolis, Minn., catalog number 1182-ZN). The fluorogenic peptide substrate Mca-D-Arg-Arg-Leu-Dap-(Dnp)-OH (Medeiros et al. (1997) Braz. J. Med. Biol. Res. 30:1157-62; Anaspec, San Jose, Calif.) was used.
(§2) The assays were performed in 384-well white opaque plates at 37° C. using the fluorogenic peptide substrate at a concentration of 10 μM in Assay Buffer (50 mM HEPES, pH 7.5, 100 mM NaCl, 0.01% polyethylene glycol sorbitan monolaurate (Tween-20), 10 μM ZnSO4).
(§3) Test compounds were assayed over the range of concentrations from 10 μM to 20 pM. Test compounds were added to the enzyme and incubated for 30 minute at 37° C. prior to initiating the reaction by the addition of substrate. Reactions were terminated after 20 minutes of incubation at 37° C. by the addition of glacial acetic acid to a final concentration of 3.6% (v/v).
(§4) Plates were read on a fluorometer with excitation and emission wavelengths set to 320 nm and 405 nm, respectively. Inhibition constants were obtained by nonlinear regression of the data using the equation (GraphPad Software, Inc., San Diego, Calif.): v=v0/[1+(I/K′)] where v is the reaction rate, v0 is the uninhibited reaction rate, I is the inhibitor concentration and K′ is the apparent inhibition constant.

[1] = IV/PO pharmacokinetic study in dogs (Assay 3); format: in vivo; settings: male, beagle, plasma, dog, read-out: AUClast Mean
Description: (§5) Each rat or dog pharmacokinetic study began with formulation of the test compound. Appropriate masses of each test compound were added into a volume of vehicle (e.g. 5% sodium bicarbonate, 5% dextrose in water) such that the final concentration of each compound was appropriate to be dosed at 2 mL/kg. Although a homogenous suspension were acceptable for oral dosing, intravenous dosing solutions were sterile-filtered (0.2 μm) prior to dosing to ensure no particulates were administered.
In the dog study, male beagle dogs (3 per route) housed at Agilux Laboratories (Worcester, Mass.) and weighing between 7-12 kg received either a single oral gavage or a single intravenous (via indwelling catheter) dose of the dosing solution. The final dose was typically 0.1-2 mg/kg. Serial blood samples were harvested via direct venipuncture at 3 minutes, 15 minutes, 30 minutes, 1 hour, 2 hours, 4 hours, 6 hours, 8 hours, 12 hours, and 24 hours post-dose. All samples were collected manually into microtainer tubes containing sodium fluoride, potassium oxalate and paraoxon, and were processed to plasma by refrigerated centrifugation.
(§6) Plasma samples were extracted with 3 volumes of MeCN containing a suitable internal standard. Extracts were reconstituted into 3 volumes of water containing 1% formic acid, and analyzed via HPLC-coupled MS/MS. Plasma concentration-time data were analyzed using the Phoenix software (Pharsight Corp., St. Louis, Mo.) to calculate pharmacokinetic parameters.

[2] = IV/PO pharmacokinetic study in rats (Assay 3); format: in vivo; settings: male, Sprague-Dawley, plasma, rat, read-out: AUClast Mean
Description: as §5
In the rat study, pre-cannulated male Sprague-Dawley rats (3 per route) between 8 and 10 weeks of age were obtained from Harlan Laboratories (Indianapolis, Ind.). Rats received either a single oral gavage or a single intravenous (via lateral tail vein) dose of the dosing solution. The final dose was typically 0.5-3 mg/kg. Serial blood samples were harvested via the cannula implanted in the jugular vein at 3 minutes, 15 minutes, 30 minutes, 1 hour, 2 hours, 4 hours, 6 hours, and 24 hours post-dose. Sampling was performed either manually or using automated blood samplers. Samples were collected into microtainer tubes containing sodium fluoride, potassium oxalate and paraoxon, and were processed to plasma by refrigerated centrifugation.
as §6

Rat NEP = molecular target: T1, Rat NEP (Rattus norvegicus, UniProt P07861); assay: In vitro enzyme inhibition assay, rat NEP (Assay 1); format: biochemical; settings: NEP from rat kidneys; read-out: rat pKi (converted)
T1 construct: leaving a viscous oily precipitate containing the enriched membrane fraction; from tissue; host or cells: kidneys of adult Sprague Dawley rats (Triton X-114 enriched membrane fraction)
T1 sequence (P07861 1-750): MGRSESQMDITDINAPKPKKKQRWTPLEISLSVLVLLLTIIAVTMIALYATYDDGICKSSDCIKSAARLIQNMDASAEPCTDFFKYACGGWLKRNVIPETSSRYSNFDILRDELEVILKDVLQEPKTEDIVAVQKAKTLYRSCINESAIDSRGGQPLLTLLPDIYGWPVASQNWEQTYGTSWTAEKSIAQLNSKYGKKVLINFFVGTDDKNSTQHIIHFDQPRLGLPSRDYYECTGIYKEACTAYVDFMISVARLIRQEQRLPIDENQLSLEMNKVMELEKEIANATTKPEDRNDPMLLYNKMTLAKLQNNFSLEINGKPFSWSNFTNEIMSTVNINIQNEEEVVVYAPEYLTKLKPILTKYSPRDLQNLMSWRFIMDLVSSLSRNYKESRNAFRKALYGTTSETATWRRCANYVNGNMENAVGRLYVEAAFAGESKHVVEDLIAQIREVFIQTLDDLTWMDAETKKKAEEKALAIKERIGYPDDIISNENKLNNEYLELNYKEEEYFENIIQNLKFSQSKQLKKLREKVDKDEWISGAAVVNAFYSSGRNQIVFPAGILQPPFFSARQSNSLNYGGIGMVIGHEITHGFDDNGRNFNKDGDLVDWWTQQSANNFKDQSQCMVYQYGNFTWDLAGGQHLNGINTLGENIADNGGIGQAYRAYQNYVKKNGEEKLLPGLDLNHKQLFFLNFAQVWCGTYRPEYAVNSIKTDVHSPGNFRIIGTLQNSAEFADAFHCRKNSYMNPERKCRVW
Description: as §1
Rat NEP was prepared from the kidneys of adult Sprague Dawley rats. Whole kidneys were washed in cold phosphate buffered saline (PBS) and brought up in ice-cold lysis buffer (1% Triton X-114, 150 mM NaCl, 50 mM tris(hydroxymethyl) aminomethane (Tris) pH 7.5; Bordier (1981) J. Biol. Chem. 256: 1604-1607) in a ratio of 5 mL of buffer for every gram of kidney. Samples were homogenized on ice using a polytron hand held tissue grinder. Homogenates were centrifuged at 1000×g in a swinging bucket rotor for 5 minutes at 3° C. The pellet was resuspended in 20 mL of ice cold lysis buffer and incubated on ice for 30 minutes. Samples (15-20 mL) were then layered onto 25 mL of ice-cold cushion buffer (6% w/v sucrose, 50 mM pH 7.5 Tris, 150 mM NaCl, 0.06%, Triton X-114), heated to 37° C. for 3-5 minutes and centrifuged at 1000×g in a swinging bucket rotor at room temperature for 3 minutes. The two upper layers were aspirated off, leaving a viscous oily precipitate containing the enriched membrane fraction. Glycerol was added to a concentration of 50% and samples were stored at −20° C. Protein concentrations were quantitated using a BCA detection system with bovine serum albumin (BSA) as a standard.
as §2, §3, §4

[3] = Dynamic moisture sorption assessment; format: physicochemical
Description: In one embodiment, crystalline form 1′ is characterized by the DMS isotherm in FIG. 4. This form is a non-hygroscopic solid. The total moisture gain observed is less than 1% by weight when exposed to between 5% and 90% relative humidity. No significant hysteresis is found between consecutive sorption-desorption cycles.
DMS measurements were performed using a VTI atmospheric microbalance, SGA-100 system (VTI Corp., Hialeah, Fla. 33016). A weighed sample was used and the humidity was lowest possible value (close to 0% relative humidity) at the start of the analysis. The DMS analysis consisted of a scan rate of 5% relative humidity/step over the full humidity range of 5-90%. The DMS run was performed isothermally at 25° C.

[4] = Accelerated stability study of calcium salt crystals (Example 7); format: physicochemical
Description: One challenge in pharmaceutical drug development relates to discovering a stable, crystalline form of a drug having a reasonably high melting point. The challenge of the present invention was that crystals of the free acid of Compound 1 could not be obtained. Furthermore, many crystal screens failed, with the exception of two-arginine and calcium crystals of (2S,4R)-5-(5′-chloro-2′-fluorobiphenyl-4-yl)-4-(ethoxyoxalylamino)-2-hydroxymethyl-2-methylpentanoic acid were obtained. However, the arginine crystals (see Example 1) were deliquescent at ambient conditions and were difficult to develop further. On the other hand, the calcium crystals were stable and melted around 239° C. For that reason, an accelerated stability study of Compound 1′ was conducted at the temperatures and % relative humidity (RH) reported below.

[5] = PO, analyte = compound dosed (prodrug)
[6] = IV, analyte = compound dosed (active metabolite)

Sequence of NEP (P08473 52-750 limits assumed): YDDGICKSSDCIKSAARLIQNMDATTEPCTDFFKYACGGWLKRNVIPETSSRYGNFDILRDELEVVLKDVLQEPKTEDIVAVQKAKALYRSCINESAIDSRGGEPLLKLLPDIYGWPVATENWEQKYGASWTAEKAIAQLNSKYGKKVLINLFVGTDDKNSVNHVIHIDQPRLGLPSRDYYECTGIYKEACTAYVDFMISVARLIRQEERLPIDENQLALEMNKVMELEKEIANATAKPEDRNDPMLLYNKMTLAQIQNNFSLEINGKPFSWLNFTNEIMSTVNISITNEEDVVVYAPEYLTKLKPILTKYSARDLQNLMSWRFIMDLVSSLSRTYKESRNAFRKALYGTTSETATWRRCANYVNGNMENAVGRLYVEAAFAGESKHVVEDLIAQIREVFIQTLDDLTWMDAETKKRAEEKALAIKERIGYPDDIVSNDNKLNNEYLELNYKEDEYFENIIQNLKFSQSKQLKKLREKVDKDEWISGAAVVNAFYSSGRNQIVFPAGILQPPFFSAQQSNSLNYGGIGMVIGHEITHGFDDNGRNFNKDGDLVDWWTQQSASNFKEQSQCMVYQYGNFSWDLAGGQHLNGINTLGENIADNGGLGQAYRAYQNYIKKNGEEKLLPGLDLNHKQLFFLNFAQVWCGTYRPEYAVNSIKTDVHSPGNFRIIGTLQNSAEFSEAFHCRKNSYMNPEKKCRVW

SMILES: CCOC(=O)[C@](C)(CO)C[C@@H](Cc1ccc(-c2cc(Cl)ccc2F)cc1)NC(=O)C(=O)O [Comparison Compound C3, (2S,4R)-5-(5′-Chloro-2′-fluorobiphenyl-4-yl)-2-hydroxymethyl-2-methyl-4-(oxalylamino)pentanoic Acid Ethyl Ester]
Ki (NEP): 3980 nM
AUC(0-t) [1, 5]: 950 ng·h/mL
AUC(0-t) [2, 5]: 560 ng·h/mL
Ki (Rat NEP): 2000 nM

SMILES: CCOC(=O)C(=O)N[C@H](Cc1ccc(-c2cc(Cl)ccc2F)cc1)C[C@@](C)(CO)C(=O)O [Compound 1′, Calcium (2S,4R)-5-(5′-Chloro-2′-fluoro-[1,1′-biphenyl]-4-yl)-4-(2-ethoxy-2-oxoacetamido)-2-(hydroxymethyl)-2-methylpentanoate]
hygroscopicity (in words) ([3]; DMS isotherm): non-hygroscopic
total moisture gain ([3]; between 5% and 90% relative humidity, 25° C.): less than 1 % by weight
Assay ([4]; 5° C., 0 months): 95.0 % (w/w)
Purity ([4]; 5° C., 0 months): 97.3 % (a/a)
Assay ([4]; 5° C., 2 months): 93.4 % (w/w)
Purity ([4]; 5° C., 2 months): 97.6 % (a/a)
Assay ([4]; 5° C., 3 months): 92.4 % (w/w)
Purity ([4]; 5° C., 3 months): 97.5 % (a/a)
Assay ([4]; 25° C., 60% RH, 0 months): 95.0 % (w/w)
Purity ([4]; 25° C., 60% RH, 0 months): 97.3 % (a/a)
Assay ([4]; 25° C., 60% RH, 2 months): 94.4 % (w/w)
Purity ([4]; 25° C., 60% RH, 2 months): 97.3 % (a/a)
Assay ([4]; 25° C., 60% RH, 3 months): 92.9 % (w/w)
Purity ([4]; 25° C., 60% RH, 3 months): 96.8 % (a/a)
Assay ([4]; 40° C., 75% RH, 0 months): 95.0 % (w/w)
Purity ([4]; 40° C., 75% RH, 0 months): 97.3 % (a/a)
Assay ([4]; 40° C., 75% RH, 1 month): 95.5 % (w/w)
Purity ([4]; 40° C., 75% RH, 1 month): 95.9 % (a/a)
Assay ([4]; 40° C., 75% RH, 2 months): 92.1 % (w/w)
Purity ([4]; 40° C., 75% RH, 2 months): 95.3 % (a/a)
Assay ([4]; 40° C., 75% RH, 3 months): 92.1 % (w/w)
Purity ([4]; 40° C., 75% RH, 3 months): 93.9 % (a/a)
stability (in words) ([4]; up to at least three months at the temperatures and relative humidity tested): relatively stable

SMILES: O=C(O)C(=O)N[C@H](Cc1ccc(-c2cc(Cl)ccc2F)cc1)C[C@@H](O)C(=O)O [Comparison Compound C6, (2R,4R)-5-(5′-Chloro-T-fluorobiphenyl-4-yl)-2-hydroxy-4-(oxalylamino)pentanoic Acid]
Ki (NEP): 0.2 nM
AUC(0-t) [1, 6]: 1280 ng·h/mL
AUC(0-t) [2, 6]: 15000 ng·h/mL
Ki (Rat NEP): 0.158 nM

The next lines start with the values.

Ki (NEP): 15.8 nM
AUC(0-t) [1, 5]: 480 ng·h/mL
AUC(0-t) [2, 5]: 40 ng·h/mL
Ki (Rat NEP): 7.94 nM
SMILES: CCOC(=O)[C@H](O)C[C@@H](Cc1ccc(-c2cc(Cl)ccc2F)cc1)NC(=O)C(=O)O [Comparison Compound C4, (2R,4R)-5-(5′-Chloro-2′-fluorobiphenyl-4-yl)-2-hydroxy-4-(oxalylamino)pentanoic Acid Ethyl Ester]

Ki (NEP): 0.2 nM
AUC(0-t) [1, 5]: 29 ng·h/mL
Ki (Rat NEP): 0.2 nM
SMILES: CCOC(=O)C(=O)N[C@H](Cc1ccc(-c2cc(Cl)ccc2F)cc1)C[C@@H](O)C(=O)O [Comparison Compound C5, (2R,4R)-5-(5′-Chloro-T-fluorobiphenyl-4-yl)-4-(ethoxyoxalylamino)-2-hydroxypentanoic Acid]
